Experimental data as given in patent US20040097566A1, “2-Substituted thiazolidinone and oxazolidinone derivatives for the inhibition of phosphatases and the treatment of cancer” (priority 2001, published 2004).

Row | Structure (SMILES) | melting point [°C]
1 | C[C@H]1CN(C2=NC(=O)/C(=C/c3cccc(-c4cc(F)c(O)c(C56CC7CC(CC(C7)C5)C6)c4)c3)S2)C[C@H](C)O1 (relative stereo) [Compound 50, 5-[3-(3-Adamantan-1-yl-4-hydroxy-5-fluoro-phenyl)benzylidene]-2-(trans-2,6-dimethylmorpholin-4-yl)-thiazol-4-one] | 262 to 264
2 | O=C1N=C(N2CCOCC2)S/C1=C\c1cccc(-c2ccc(O)c(C34CC5CC(CC(C5)C3)C4)c2)c1 [Compound 2, 5-[3-(3-Adamantan-1-yl-4-hydroxy-phenyl)benzylidene]-2-morpholin-4-yl-thiazol-4-one] | 325 to 328
3 | O=C1N=C(N2CCCCC2)S/C1=C\c1ccc(-c2ccc(O)c(C34CC5CC(CC(C5)C3)C4)c2)cc1 [Compound 4, 5-[4-(3-Adamantan-1-yl-4-hydroxy-phenyl)benzylidene]-2-piperidin-1yl-thiazol-4-one] | 325 to 328
4 | CN1CCN(C2=NC(=O)/C(=C/c3cccc(-c4ccc(O)c(C56CC7CC(CC(C7)C5)C6)c4)c3)S2)CC1 [Compound 8, 5-[3-(3-Adamantan-1-yl-4-hydroxy-phenyl)benzylidene]-2-(4-methyl-piperazin-1-yl)-thiazol-4-one] | 291 to 294
5 | CN1CCN(C2=NC(=O)/C(=C/c3cccc(-c4cc(F)c(O)c(C56CC7CC(CC(C7)C5)C6)c4)c3)S2)CC1 [Compound 9, 5-[3-(3-Adamantan-1-yl-4-hydroxy-5-fluoro-phenyl)benzylidene]-2-(4-methyl-piperazin-1-yl)-thiazol-4-one] | 226 to 228
6 | CCN(CC)C1=NC(=O)/C(=C/c2cccc(-c3ccc(O)c(C45CC6CC(CC(C6)C4)C5)c3)c2)S1 [Compound 10, 5-[3-(3-Adamantan-1-yl-4-hydroxy-phenyl)benzylidene]-2-diethylamino-thiazol-4-one] | 275 to 277
7 | O=C1N=C(N2CCCC2)S/C1=C\c1cccc(-c2cc(F)c(O)c(C34CC5CC(CC(C5)C3)C4)c2)c1 [Compound 13, 5-[3-(3-Adamantan-1-yl-4-hydroxy-5-fluoro-phenyl)benzylidene]-2-pyrrolidine-1-yl-thiazol-4-one-thiazol-4-one] | 309 to 311
8 | O=C1N=C(N2CCCCCC2)S/C1=C\c1cccc(-c2ccc(O)c(C34CC5CC(CC(C5)C3)C4)c2)c1 [Compound 14, 5-[3-(3-Adamantan-1-yl-4-hydroxy-phenyl)benzylidene]-2-azepan-1-yl-thiazol-4-one] | 321 to 324
9 | O=C1N=C(N2CCCCCCC2)S/C1=C\c1cccc(-c2ccc(O)c(C34CC5CC(CC(C5)C3)C4)c2)c1 [Compound 16, 5-[3-(3-Adamantan-1-yl-4-hydroxy-phenyl)benzylidene]-2-azocan-1-yl-thiazol-4-one] | 284 to 286
10 | O=C1N=C(N2CCN(c3cccc(C(F)(F)F)c3)CC2)S/C1=C\c1cccc(-c2cc(F)c(O)c(C34CC5CC(CC(C5)C3)C4)c2)c1 [Compound 19, 5-[3-(3-Adamantan-1-yl-4-hydroxy-5-fluoro-phenyl)benzylidene]-2-[4-(3-trifluoromethyl-phenyl)-piperazon-1-yl]-thiazol-4-one] | 291 to 293
11 | CN(C)CCN(Cc1ccccc1)C1=NC(=O)/C(=C/c2cccc(-c3cc(F)c(O)c(C45CC6CC(CC(C6)C4)C5)c3)c2)S1 [Compound 20, 5-[3-(3-Adamantan-1-yl-4-hydroxy-5-fluoro-phenyl)benzylidene]-2[benzyl-(2-dimethylamino-ethyl)-amino]-thiazol-4-one] | 242 to 246
12 | O=C1N=C(NCCN2CCOCC2)S/C1=C\c1cccc(-c2cc(F)c(O)c(C34CC5CC(CC(C5)C3)C4)c2)c1 [Compound 24, 5-[3-(3-Adamantan-1-yl-4-hydroxy-5-fluoro-phenyl)benzylidene]-2-(2-morpholino-1-yl-ethylamino)-thiazol-4-one] | 180 to 193
13 | O=C1N=C(N2CCCCC2)S/C1=C\c1cccc(-c2ccc(O)c(C(=O)c3ccccc3)c2)c1 [Compound 26, 5-[3-(3-Benzoyl-4-hydroxy-phenyl)benzylidene]-2-piperidin-1-yl-thiazol-4-one] | 135 to 138
14 | O=C1N=C(N2CCNCC2)S/C1=C\c1cccc(-c2cc(F)c(O)c(C34CC5CC(CC(C5)C3)C4)c2)c1 [Compound 31, 5-[3-(3-Adamantan-1-yl-4-hydroxy-5-fluoro-phenyl)benzylidene]-2piperazin-1-yl-thiazol-4-one] | 230 to 233
15 | Cc1cc(O)c(C23CC4CC(CC(C4)C2)C3)cc1-c1cccc(/C=C2\SC(N3CCOCC3)=NC2=O)c1 [Compound 33, 5-[3-(3-Adamantan-1-yl-4-hydroxy-6-methyl-phenyl)benzylidene]-2-morpholin-4-yl-thiazol-4-one] | 327 to 329
16 | O=C1N=C(N2CCOCC2)S/C1=C\c1ccc(-c2ccnc(C34CC5CC(CC(C5)C3)C4)n2)cc1 [Compound 41, 5-[4-(2-Adamantan-1-yl-pyrimidin-4-yl)-benzylidene]-2-morpholin-4-yl-thiazol-4-one] | 283 to 285

Row | Structure (SMILES) | melting point [°C]
17 | CSC1=NC(=O)/C(=C/c2cccc(-c3cc(F)c(O)c(C45CC6CC(CC(C6)C4)C5)c3)c2)S1 [Compound 51, 5-[3-(3-Adamantan-1-yl-4-hydroxy-5-fluorophenyl)benzylidene]-2-methylsulfanyl-thiazol-4-one] | 270 to 271
18 | O=C1N=C(NO)S/C1=C\c1cccc(-c2cc(F)c(O)c(C34CC5CC(CC(C5)C3)C4)c2)c1 [Compound 52, 5-[3-(3-Adamantan-1-yl-4-hydroxy-5-fluorophenyl)benzylidene]-2-hydroxyamino-thiazol-4-one] | 238 to 240
19 | O=C1N=C(N2CCC[C@H]2C(=O)O)S/C1=C\c1cccc(-c2cc(F)c(O)c(C34CC5CC(CC(C5)C3)C4)c2)c1 [Compound 53, 5-[3-(3-Adamantan-1-yl-4-hydroxy-5-fluoro-phenyl)benzylidene]-2-(2-(S)-carboxy-1-yl)-thiazol-4-one] | 195 to 198
20 | O=C1N=C(N2CCCC2)S/C1=C\c1ccc(-c2cc(F)c(O)c(C34CC5CC(CC(C5)C3)C4)c2)s1 [Compound 59, 5-[5-(3-Adamantan-1-yl-4-hydroxy-5-fluoro-phenyl)-thiophene-2-yl-methylene]-2-pyrrolidine-1-yl-thiazol-4-one] | 312 to 315
21 | CN(C)c1ccc(/C=C2\SC(N3CCCC3)=NC2=O)cc1-c1cc(F)c(O)c(C23CC4CC(CC(C4)C2)C3)c1 [Compound 61, 5-[3-(3-Adamantan-1-yl-4-hydroxy-5-fluoro-phenyl)-4-dimethylamino-benzylidene]-2-pyrrolidin-1-yl-thiazol-4-one] | 294 to 298
22 | O=C1N=C(N2CCOCC2)S/C1=C\c1ccc(OC(F)(F)F)c(-c2cc(F)c(O)c(C34CC5CC(CC(C5)C3)C4)c2)c1 [Compound 62, 5-[3-(3-Adamantan-1-yl-4-hydroxy-5-fluoro-phenyl)-4-trifluoromethoxy-benzylidene]-2-morpholin-4-yl-thiazol-4-one] | 238
23 | O=C1N=C(N2CCOCC2)S/C1=C\c1cccc(-c2ccc(O)c(F)c2)c1 [Compound 64, 5-[3-(3-Fluoro-4-hydroxy-phenyl)-benzylidene]-2-morpholin-4-yl-thiazol-4-one] | 233 to 235
24 | O=C1N=C(NN2CCCC2)S/C1=C\c1cccc(-c2cc(F)c(O)c(C34CC5CC(CC(C5)C3)C4)c2)c1 [Compound 69, 5-[3-(3-Adamantan-1-yl-4-hydroxy-5-fluoro-phenyl)benzylidene]-2-(pyrrolidin-1-ylamino)-thiazol-4-one] | 293 to 296
25 | N=C(N)NC1=NC(=O)/C(=C/c2cccc(-c3cc(F)c(O)c(C45CC6CC(CC(C6)C4)C5)c3)c2)S1 [Compound 70, 5-[3-(3-Adamantan-1-yl-4-hydroxy-5-fluorophenyl)benzylidene]-2-(N-guanidinyl)-thiazol-4-one] | 288 to 290
26 | CONC1=NC(=O)/C(=C/c2cccc(-c3cc(F)c(O)c(C45CC6CC(CC(C6)C4)C5)c3)c2)S1 [Compound 71, 5-[3-(3-Adamantan-1-yl-4-hydroxy-5-fluorophenyl)benzylidene]-2-methoxyamino-thiazol-4-one] | 286 to 288
27 | NC(=O)NNC1=NC(=O)/C(=C/c2cccc(-c3cc(F)c(O)c(C45CC6CC(CC(C6)C4)C5)c3)c2)S1 [Compound 72, 5-[3-(3-Adamantan-1-yl-4-hydroxy-5-fluorophenyl)benzylidene]-2-semicarbazid-1-yl-thiazol-4-one] | 234 to 236
28 | O=C1N=C(NN2CCOCC2)S/C1=C\c1cccc(-c2cc(F)c(O)c(C34CC5CC(CC(C5)C3)C4)c2)c1 [Compound 73, 5-[3-(3-Adamantan-1-yl-4-hydroxy-5-fluorophenyl)benzylidene]-2-(morpholin-4-yl-amino)-thiazol-4-one] | 304 to 309
29 | NNC1=NC(=O)/C(=C/c2cccc(-c3cc(F)c(O)c(C45CC6CC(CC(C6)C4)C5)c3)c2)S1 [Compound 74, 5-[3-(3-Adamantan-1-yl-4-hydroxy-5-fluorophenyl)benzylidene]-2-hydrazino-thiazol-4-one] | 303 to 308
30 | O=C1N=C(N2CCC[C@@H]2C(=O)O)S/C1=C\c1cccc(-c2cc(F)c(O)c(C34CC5CC(CC(C5)C3)C4)c2)c1 [Compound 76, 5-[3-(3-Adamantan-1-yl-4-hydroxy-5-fluoro-phenyl)benzylidene]-2-(2-(R)-carboxy-1-yl)-thiazol-4-one] | 164 to 168
31 | CC1(C)COc2ccc(-c3cncc(/C=C4\SC(N5CCOCC5)=NC4=O)c3)cc21 [Compound 82, 5-[5-(3,3-Dimethyl-2,3-dihydro-benzofuran-5-yl)-pyridin-3-ylmethylene]-2-morpholin-4-yl-thiazol-4-one] | 230 to 233
32 | COc1ccc(-c2ccc(O)c(C34CC5CC(CC(C5)C3)C4)c2)cc1/C=C1\SC(N2CCOCC2)=NC1=O [Compound 86, 5-[3-(3-Adamantan-1-yl-4-hydroxy-phenyl)-6-methoxy-benzylidene]-2-morpholin-4-yl-thiazol-4-one] | 355 to 360
